Columns and labels:
[1] = rat, in vivo
Description: This example was performed in order to investigate an effect of 3-O-β-D-glucopyranosyl-4-methylergost-7-en-3-ol and a squeezed liquid of Aloe vera on an amount of food ingestion (amount of food consumption) and increase in body weight (amount of increased body weight) of rats.
The sample was dissolved in DMSO, and the concentration of the sample was adjusted with distilled water to 10 μg/ml, to thereby prepare Test Sample C. Meanwhile, a crude solution was obtained by crushing Aloe vera gel with a juicer, and then was subjected to filtration with a No. 200 mesh (manufactured by NBC), to thereby obtain a squeezed liquid of the Aloe vera gel as Test Sample D. It was confirmed that the crush extract of Aloe vera gel contained 0.1% of 3-O-β-D-glucopyranosyl-4-methylergost-7-en-3-ol by mass. In addition, final concentration of DMSO was adjusted to 0.2%. […]
42 days after initiation of the administration, the body weights of the rats were measured, and differences between the body weights on the 42nd day and those measured before the initiation of the administration were regarded as amounts of increased body weights. In addition, weights of food consumed per day were measured once a week from the day of the initiation of the administration, and an average of the weights was regarded as an amount of food consumption per day.

hemoglobin A1c level = conditions: WO 2005/095436; cited from earlier work
[2] = system: ZDF (Zucker Diabetic Fatty) rats; test: Inhibitory effect on visceral fat accumulation: mesenteric fat weight in ZDF rats (Example 1); assay type: in vivo; conditions: for Mesenteric fat weight: ZDF rats on high-fat diet, oral once a day for 44 days, measured on 45th day, A-1 25 μg/kg, A-2 2.5 μg/kg compound, B-1 2.5 g/kg, B-2 0.125 g/kg Aloe vera solid content; for Mesenteric fat weight as compared with the group administered with the negative sample (decrease to) / Effect of inhibiting visceral fat accumulation (statistical significance, Tukey-Kramer's test): ZDF rats, 45th day; for Mesenteric fat weight as compared with the group administered with the negative sample (decrease to): negative sample 6.83±1.10 g; for Effect of inhibiting visceral fat accumulation (statistical significance, Tukey-Kramer's test): versus negative sample
Description: The squeezed liquid of Aloe vera gel was diluted 20 folds to prepare Test Sample B-2.
On 45th day from the initiation of the administration, mesenteric fat weights were measured as the visceral fat.

Structure (SMILES) | Amount of food consumption as compared with the negative sample group [1] | Effect on hemoglobin A1c level and hyperglycemia (hemoglobin A1c level) | Mesenteric fat weight [2] [g] | Mesenteric fat weight as compared with the group administered with the negative sample (decrease to) [2] [%] | Effect of inhibiting visceral fat accumulation (statistical significance, Tukey-Kramer's test) [2]
CC(C)C(C)CCC(C)C1CCC2C3=CCC4C(C)C(OC5OC(CO)C(O)C(O)C5O)CCC4(C)C3CCC21C [Compound 1, 3-O-β-D-glucopyranosyl-4-methylergost-7-en-3-ol] | does not affect the amount of food ingestion | effect of decreasing hemoglobin A1c level and improving hyperglycemia | – | – | –
CC(C)C(C)CCC(C)C1CCC2C3=CCC4C(C)C(OC5OC(CO)C(O)C(O)C5O)CCC4(C)C3CCC21C [Test Sample A-1, 3-O-β-D-glucopyranosyl-4-methylergost-7-en-3-ol] | – | – | 3.15 ± 0.28 | 46.2 | statistically significant effects of inhibiting visceral fat accumulation
CC(C)C(C)CCC(C)C1CCC2C3=CCC4C(C)C(OC5OC(CO)C(O)C(O)C5O)CCC4(C)C3CCC21C [Test Sample A-2, 3-O-β-D-glucopyranosyl-4-methylergost-7-en-3-ol] | – | – | 4.99 ± 0.53 | 73.1 | statistically significant effects of inhibiting visceral fat accumulation
CC(C)C(C)CCC(C)C1CCC2C3=CCC4C(C)C(OC5OC(CO)C(O)C(O)C5O)CCC4(C)C3CCC21C [Test Sample C, 3-O-β-D-glucopyranosyl-4-methylergost-7-en-3-ol] | did not show significant increase or decrease in amount of food consumption | – | – | – | –

Source: patent publication US7846905B2, “Agent for inhibiting visceral fat accumulation” (Morinaga Milk Industry Co., Ltd., priority 2005, dated 2010)
